The target of test [1] is His-tagged human recombinant kinase full-length Akt1 (Homo sapiens (Human), UniProt P31749). Kind of test: Akt1 kinase assay (Akt1 TR-FRET assay). Format: biochemical. The note with it: 10 μM ATP, 60 min at 22° C., read-out: Akt1 median IC50.
The target of test [2] is His-tagged human recombinant kinase full-length Akt2 (Homo sapiens (Human), UniProt P31751). The test can be described thus: Akt2 kinase assay (Akt2 TR-FRET assay). Format: biochemical. The note with it: 10 μM ATP, 60 min at 22° C., read-out: Akt2 median IC50. On the technique in general: In TR-FRET formats the signal depends on donor and acceptor labels being close together.
His-tagged human recombinant kinase full-length Akt2, sequence (P31751 whole entry): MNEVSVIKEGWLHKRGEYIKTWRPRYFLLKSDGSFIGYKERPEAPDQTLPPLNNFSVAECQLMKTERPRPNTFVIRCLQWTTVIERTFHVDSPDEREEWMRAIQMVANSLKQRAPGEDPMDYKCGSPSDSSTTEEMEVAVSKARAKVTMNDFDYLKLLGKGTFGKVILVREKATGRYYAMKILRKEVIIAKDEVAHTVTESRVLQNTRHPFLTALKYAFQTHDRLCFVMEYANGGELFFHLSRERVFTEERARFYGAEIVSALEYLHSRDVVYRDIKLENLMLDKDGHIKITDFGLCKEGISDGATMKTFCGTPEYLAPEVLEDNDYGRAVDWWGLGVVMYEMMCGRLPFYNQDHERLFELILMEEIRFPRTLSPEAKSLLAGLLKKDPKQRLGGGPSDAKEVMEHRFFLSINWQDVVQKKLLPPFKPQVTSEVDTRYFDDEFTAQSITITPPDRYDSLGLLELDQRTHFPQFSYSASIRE

A further test has as its system phospho-AKT at S473. Kind of test: Cellular p-AKT1/2/3-S473 assay in KPL-4 cells. Format: cell-based. The conditions noted are these: Homo sapiens, KPL4; KPL-4 breast tumour cell line, compound treatment 2 hours; read-out: pAKT-S473 median IC50.
A further test relates to p-4E-BP1 at T70. Kind of test: Cellular p-4E-BP1-T70 assay in KPL-4 cells. Format: cell-based. The note with it: Homo sapiens, KPL4; KPL-4 breast tumour cell line, compound treatment 2 hours; read-out: P4EBP1-T70 median IC50.
Test [3] concerns KPL-4 breast cancer cell line. The test can be described thus: Tumor cell proliferation assay (CellTiter-Glo), KPL-4. The note with it: Homo sapiens, KPL4, 72 h drug exposure, read-out: KLP-4 median IC50. The test is classed as cell-based. (In ATP-based viability assays light output follows the ATP content of the culture.)
Experimental: Biological Assay 4.0: Tumor Cell Proliferation Assays
Compounds were tested in a cell-based assay that measures the capacity of the compounds to inhibit tumour cell proliferation following a 72 h drug exposure. Cell viability is determined using CellTiter-Glow® (CTG, Promega, cat#G7571/2/3). The CellTiter-Glo® Luminescent Cell Viability Assay is a homogeneous method to determine the number of viable cells in culture.
Detection is based on using the luciferase reaction to measure the amount of ATP from viable cells. The amount of ATP in cells correlates with cell viability. Within minutes after a loss of membrane integrity, cells lose the ability to synthesize ATP, and endogenous ATPases destroy any remaining ATP; thus the levels of ATP fall precipitously.
For each cell line assayed, cells were plated onto a separate plate for determination of fluorescence at t=0 hour and t=72 hour time points. Following overnight incubation at 37° C., chemiluminescence values for the t=0 samples were determined after adding 10 μl medium and 100 μl CTG solution according to manufacture protocol. Plates for the t=72 hour time points were treated with compounds diluted into growth medium at ten times final concentration added in 10 μL to the cell culture plate. Cells were then incubated for 72 hours at 37° C. Chemiluminescence values for the t=72 hour samples were determined. […] Experiments were controlled using a reference compound as standard.
Test [4] concerns MCF-7 breast tumour cell line. Kind of test: Tumor cell proliferation assay (CellTiter-Glo), MCF-7. The test is classed as cell-based. The note with it: Homo sapiens, MCF7, 72 h drug exposure, read-out: MCF-7 median IC50.

Molecules are shown by their SMILES.

His-tagged human recombinant kinase full-length Akt1, sequence (P31749 whole entry): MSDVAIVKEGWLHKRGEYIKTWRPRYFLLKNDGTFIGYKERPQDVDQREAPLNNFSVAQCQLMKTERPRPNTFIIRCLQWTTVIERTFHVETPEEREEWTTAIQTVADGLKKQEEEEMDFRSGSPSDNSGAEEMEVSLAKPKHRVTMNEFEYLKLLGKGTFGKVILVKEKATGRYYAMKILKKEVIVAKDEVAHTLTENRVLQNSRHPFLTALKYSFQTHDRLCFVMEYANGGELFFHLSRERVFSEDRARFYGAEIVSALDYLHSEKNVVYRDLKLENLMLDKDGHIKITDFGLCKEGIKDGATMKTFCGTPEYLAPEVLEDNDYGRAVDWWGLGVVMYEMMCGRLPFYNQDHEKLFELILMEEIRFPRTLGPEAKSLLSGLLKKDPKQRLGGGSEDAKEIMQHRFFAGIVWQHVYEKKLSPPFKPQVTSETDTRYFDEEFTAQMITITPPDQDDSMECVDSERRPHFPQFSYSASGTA
Experimental for p-4E-BP1 at T70: (§1) The molecular mechanism of action was investigated in a set of experiments to assess the inhibition of the PI3K-AKT-mTOR pathway in responsive cell lines such as KPL-4 breast tumour cell line (PIK3CA^H1047R, HER2^O/E and hormone independent). The phospho-substrates of PI3K-AKT-mTOR axis were used as the read-outs to reflect pathway inhibition. Cells were seeded at 60-80% confluency per well in 96-well cell culture plates. After overnight incubation at 37° C. 5% CO2, cells were treated with compounds and vehicle at 37° C. for 2 hours. […] All measurements where at least done in duplicates and confirmed by independent repetition.
Experimental for phospho-AKT at S473: as §1
Alternatively pAKT-S473 was measured using the “Akt Duplex” of the MULTI-SPOT® Assay System (Fa. Meso Scale Discovery, Cat#N41100B-1) following manufacturers instructions. Each assay used 20 μg of protein extract and measured total AKT and p-AKT content simultaneously in one well. All measurements where at least done in duplicates and confirmed by independent repetition. Values for P-AKT are expressed as percentage of P-AKT level compared to total-AKT content of the extracts.

Regarding `CCc1cc(-c2cc[nH]n2)c2nc(-c3ccc(C4(N)CCC4)cc3)c(-c3ccccc3)n2n1` [Example 21, 1-{4-[6-Ethyl-3-phenyl-8-(1H-pyrazol-3-yl)imidazo [1,2-b]pyridazin-2-yl]phenyl}cyclobutanamine], the IC50 – broadly, the midpoint of a concentration-inhibition curve – in test [1] was 73 nM; in test [2], 130 nM; in the test on phospho-AKT at S473, 420 nM; in the test with p-4E-BP1 at T70, 1700 nM; in test [3], 2000 nM; in test [4], 1800 nM.
In the case of `COc1ccnn2c(-c3ccccc3)c(-c3ccc(C4(N)CCC4)cc3)nc12` [Example 11, 1-[4-(8-Methoxy-3-phenylimidazo[1,2-b]pyridazin-2-yl)phenyl]cyclobutanamine], the IC50 amounted to 130 nM in test [1]; 110 nM in test [2]; 14 nM in the test on phospho-AKT at S473; 160 nM with p-4E-BP1 at T70; 630 nM in test [3]; 470 nM in test [4].
With `CCOc1cc(Cl)nn2c(-c3ccccc3)c(-c3ccc(C4(N)CCC4)cc3)nc12` [Example 30, 1-[4-(6-Chloro-8-ethoxy-3-phenylimidazo[1,2-b]pyridazin-2-yl)phenyl]cyclobutanamine], the IC50 in test [1] was 51 nM; in test [2] it was 58 nM; in the test on phospho-AKT at S473, 400 nM; in the test on p-4E-BP1 at T70, 2500 nM; in test [3], 6000 nM; in test [4] it was 2600 nM.
Regarding `COc1nn2c(-c3ccccc3)c(-c3ccc(C4(N)CCC4)cc3)nc2c(C)c1C` [Example 53, 1-[4-(6-Methoxy-7,8-dimethyl-3-phenylimidazo[1,2-b]pyridazin-2-yl)phenyl]-cyclobutanamine], the IC50 in test [1] is 9.2 nM; in test [2], 2.4 nM; in the test on phospho-AKT at S473 it was 200 nM; with p-4E-BP1 at T70, 1000 nM; in test [3], 1700 nM; in test [4], 870 nM.
Take `NC1(c2ccc(-c3nc4c(-c5cc[nH]n5)ccnn4c3-c3ccccc3)cc2)CCC1` [Example 27, 1-{4-[3-Phenyl-8-(1H-pyrazol-3-yl)imidazo[1,2-b]pyridazin-2-yl]phenyl}cyclobutanamine]: the IC50 amounted to 15 nM in test [1]; 29 nM in test [2]; 36 nM with phospho-AKT at S473; 480 nM with p-4E-BP1 at T70; 1800 nM in test [3]; 1800 nM in test [4].
For `COc1cc(Br)nn2c(-c3ccccc3)c(-c3ccc(C4(N)CCC4)cc3)nc12` [Example 7, 1-[4-(6-Bromo-8-methyloxy-3-phenylimidazo[1,2-b]pyridazin-2-yl)phenyl]-cyclobutanamine], the IC50 was 6.9 nM in test [1]; 9.7 nM in test [2]; 27 nM with phospho-AKT at S473; 1300 nM in the test with p-4E-BP1 at T70; 250 nM in test [3]; 410 nM in test [4].
As for `CNC(=O)c1cc(-c2cc[nH]n2)c2nc(-c3ccc(C4(N)CCC4)cc3)c(-c3ccccc3)n2n1` [Example 65, 2-[4-(1-Aminocyclobutyl)phenyl]-N-methyl-3-phenyl-8-(1H-pyrazol-3-yl)imidazo[1,2-b]pyridazine-6-carboxamide], the IC50 came out at 3.1 nM in test [1]; 2.6 nM in test [2]; 1.4 nM in the test on phospho-AKT at S473; 22 nM with p-4E-BP1 at T70; 470 nM in test [3]; 280 nM in test [4].
In the case of `CNC(=O)c1cc(-c2ncc[nH]2)c2nc(-c3ccc(C4(N)CCC4)cc3)c(-c3ccccc3)n2n1` [Example 62, 2-[4-(1-Aminocyclobutyl)phenyl]-8-(1H-imidazol-2-yl)-N-methyl-3-phenylimidazo[1,2-b]pyridazine-6-carboxamide], the IC50 in test [1] came to 16 nM; in test [2], 62 nM; in the test on phospho-AKT at S473 it was 0.4 nM; in the test with p-4E-BP1 at T70 it was 35 nM.
As to `NC1(c2ccc(-c3nc4ccc(C(=O)NCCO)nn4c3-c3ccccc3)cc2)CCC1` [Example 70, 2-[4-(1-Aminocyclobutyl)phenyl]-N-(2-hydroxyethyl)-3-phenylimidazo[1,2-b]pyridazine-6-carboxamide], the IC50 turned out to be 110 nM in test [2]; 5.7 nM in the test with phospho-AKT at S473; 2400 nM in the test on p-4E-BP1 at T70; 2600 nM in test [3]; 940 nM in test [4].
In the case of `NC1(c2ccc(-c3nc4c(C5CC5)cc(Cl)nn4c3-c3ccccc3)cc2)CCC1` [Example 46, 1-[4-(6-Chloro-8-cyclopropyl-3-phenylimidazo [1,2-b]pyridazin-2-yl)phenyl]cyclobutanamine], the IC50 was found to be 85 nM in test [2]; 430 nM in the test on phospho-AKT at S473; 300 nM in the test with p-4E-BP1 at T70; 1900 nM in test [3]; 1500 nM in test [4].
With `COC(=O)c1ccnn2c(-c3ccccc3)c(-c3ccc(C4(N)CCC4)cc3)nc12` [Example 31, Methyl 2-[4-(1-aminocyclobutyl)phenyl]-3-phenylimidazo[1,2-b]pyridazine-8-carboxylate], the IC50 in test [2] was 140 nM; with phospho-AKT at S473, 1800 nM; in the test on p-4E-BP1 at T70, 4300 nM; in test [3], 8400 nM; in test [4], 1400 nM.
On the same counts, the results for `Nc1ccnn2c(-c3ccccc3)c(-c3ccc(C4(N)CCC4)cc3)nc12` [Example 48, 2-[4-(1-Aminocyclobutyl)phenyl]-3-phenylimidazo[1,2-b]pyridazin-8-amine] are 610 nM, 42 nM, 29 nM, 1100 nM and 1300 nM.
Take `NC1(c2ccc(-c3nc4ccc(Cl)nn4c3-c3ccccc3)cc2)CCC1` [Example 17, 1-[4-(6-Chloro-3-phenylimidazo[1,2-b]pyridazin-2-yl)phenyl]cyclobutanamine]: the IC50 in test [1] is 43 nM; in test [2] it was 92 nM; in the test with phospho-AKT at S473, 12 nM; in the test with p-4E-BP1 at T70, 430 nM.
As to `NC1(c2ccc(-c3nc4c(-c5cc[nH]n5)cc(C(=O)O)nn4c3-c3ccccc3)cc2)CCC1` [Example 67, 2-[4-(1-Aminocyclobutyl)phenyl]-3-phenyl-8-(1H-pyrazol-3-yl)imidazo[1,2-b]-pyridazine-6-carboxylic acid], the IC50 was 58 nM in test [1], 96 nM in test [2], more than 10000 nM in the test on phospho-AKT at S473 and more than 10000 nM in the test with p-4E-BP1 at T70.
Take `Cc1ccc2nc(-c3ccc(C4(N)CCC4)cc3)c(-c3ccccc3)n2n1` [Example 1, 1-[4-(6-Methyl-3-phenylimidazo[1,2-b]pyridazin-2-yl)phenyl]cyclobutanamine]: the IC50 in test [1] was 170 nM; in test [2], 380 nM; with phospho-AKT at S473 it was 160 nM; in test [3], 1800 nM; in test [4], 600 nM.
In the case of `CCOc1ccc2nc(-c3ccc(C4(N)CCC4)cc3)c(-c3ccccc3)n2n1` [Example 78, 1-[4-(6-Ethoxy-3-phenylimidazo[1,2-b]pyridazin-2-yl)phenyl]cyclobutanamine], the IC50 in test [1] stood at 32 nM; in test [2], 230 nM; in the test on phospho-AKT at S473 it was 92 nM; in the test on p-4E-BP1 at T70, 580 nM.
Take `Nc1ccc2nc(-c3ccc(C4(N)CCC4)cc3)c(-c3ccccc3)n2n1` [Example 35, 2-[4-(1-Aminocyclobutyl)phenyl]-3-phenylimidazo[1,2-b]pyridazin-6-amine]: the IC50 in test [2] amounted to 1200 nM; in the test with phospho-AKT at S473 it was 190 nM; in the test with p-4E-BP1 at T70 it was 1700 nM; in test [3], 6100 nM; in test [4] it was 3000 nM.

The record behind these values is US9604989B2, “Imidazopyridazines as Akt kinase inhibitors” (Bayer Intellectual Property GmbH, priority 2011, dated 2017).
